Data as given in patent US20240025906A1 (NEURON23, INC., priority 2022, published 2024).
pIC50, pKd: −log10 of the molar value.

Legend:
TYK2 JH2 = target: T1, TYK2 JH2 (Homo sapiens, UniProt P29597); assay: TYK2 JH2 binding assay (KINOMEscan KdELECT competitive binding); settings: TYK2 JH2 domain, DiscoverX KINOMEscan KdELECT (Assay A); read-out: Biochemical TYK2_DiscoverX_JH2_BND_Kd
T1 construct: purchased DiscoverX (KINOMEscan KdELECT service); host or cells: E. coli BL21-derived (T7 phage display) or HEK-293
Method in brief: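 Test compounds were titrated in 11 three-fold steps against JH2 fragment captured on ligand-loaded magnetic beads, with 1 h incubation at room temperature and DMSO at 0.9%. Eluted kinase was quantified by qPCR, and Kd was fitted from the dose series.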

[1] = system: JAK1/TYK2 pSTAT5 (Tyr694/699) in THP-1 cell line; assay: IFNa-stimulated JAK1/TYK2 pSTAT5 (Tyr694/699) inhibition cellular assay, AlphaLISA; assay type: cell-based; settings: Homo sapiens; THP-1 cells, IFNa-stimulated, AlphaLISA (Assay B); read-out: Cellular_THP1_IFNa-pSTATS_TYK2
Method in brief: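 THP-1 cells (2e4/well in HBSS) were preincubated with compound (8 points, 6-fold steps from 10000 nM final) for 1 h at 37 °C, then stimulated with IFNa (added at 100 ng/mL) for 30 min. Lysate pSTAT5 was read by AlphaLISA at 615 nm. IC50 came from a 4-parameter fit with bottom 0 and Hill −1.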

T1 sequence (P29597 589-875 limits assumed): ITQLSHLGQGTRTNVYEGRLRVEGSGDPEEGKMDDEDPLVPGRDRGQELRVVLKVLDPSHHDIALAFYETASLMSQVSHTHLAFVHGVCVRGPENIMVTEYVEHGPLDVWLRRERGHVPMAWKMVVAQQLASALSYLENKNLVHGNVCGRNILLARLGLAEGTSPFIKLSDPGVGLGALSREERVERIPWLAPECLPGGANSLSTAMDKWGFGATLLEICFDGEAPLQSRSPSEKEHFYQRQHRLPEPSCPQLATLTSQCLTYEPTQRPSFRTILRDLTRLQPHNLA

pKd (TYK2 JH2)	pIC50 [1]	SMILES
≥ 7.00	≥ 6.30	CNc1ncc(-c2nc3cccc(N4CCC4CO)c3o2)c2cc(NC(=O)C3CC3)ncc12 (centres unmarked) [Example 265, N-(5-(7-(2-(hydroxymethyl)azetidin-t-yl)benzo[d]oxazol-2-yl)-8-(methylamino)-2,7-naphthyridin-3-yl)cyclopropanecarboxamide]
≥ 7.00	≥ 6.30	CNc1ncc(-c2nc3cccc(CC#N)c3o2)c2cc(NC(=O)C3CC3)ncc12 [Example 266, N-(5-(7-(cyanomethyl)benzo[d]oxazol-2-yl)-8-(methylamino)-2,7-naphthyridin-3-yl)cyclopropanecarboxamide]
≥ 7.00	≥ 6.30	CNc1ncc(-c2nc3cccc(COC)c3o2)c2cc(NC(=O)C3CC3)ncc12 [Example 267, N-(5-(7-(methoxymethyl)benzo[d]oxazol-2-yl)-8-(methylamino)-2,7-naphthyridin-3-yl)cyclopropanecarboxamide]
≥ 7.00	≥ 6.30	CCO/C=C\c1cccc2nc(-c3cnc(NC)c4cnc(NC(=O)C5CC5)cc34)oc12 [Example 268, (Z)—N-(5-(7-(2-ethoxyvinyl)benzo[d]oxazol-2-yl)-8-(methylamino)-2,7-naphthyridin-3-yl)cyclopropanecarboxamide]
≥ 7.00	≥ 6.30	CCOCCc1cccc2nc(-c3cnc(NC)c4cnc(NC(=O)C5CC5)cc34)oc12 [Example 269, N-(5-(7-(2-ethoxyethyl)benzo[d]oxazol-2-yl)-8-(methylamino)-2,7-naphthyridin-3-yl)cyclopropanecarboxamide]
≥ 7.00	≥ 6.30	CNc1ncc(-c2nc3cccc(CCC#N)c3o2)c2cc(NC(=O)C3CC3)ncc12 [Example 270, N-(5-(7-(2-cyanoethyl)benzo[d]oxazol-2-yl)-8-(methylamino)-2,7-naphthyridin-3-yl)cyclopropanecarboxamide]
≥ 7.00	≥ 6.30	CNc1ncc(-c2nc3cccc(Cc4cocn4)c3o2)c2cc(NC(=O)C3CC3)ncc12 [Example 271, N-(8-(methylamino)-5-(7-(oxazol-4-ylmethyl)benzo[d]oxazol-2-yl)-2,7-naphthyridin-3-yl)cyclopropanecarboxamide]
≥ 7.00	≥ 6.30	CNc1ncc(-c2nc3c(Br)cccc3o2)c2cc(NC(=O)C3CC3)ncc12 [Example 272, N-(5-(4-bromobenzo[d]oxazol-2-yl)-8-(methylamino)-2,7-naphthyridin-3-yl)cyclopropanecarboxamide]
≥ 7.00	≥ 6.30	CNc1ncc(-c2nc3c(CC#N)cccc3o2)c2cc(NC(=O)C3CC3)ncc12 [Example 273, N-(5-(4-(cyanomethyl)benzo[d]oxazol-2-yl)-8-(methylamino)-2,7-naphthyridin-3-yl)cyclopropanecarboxamide]
≥ 7.00	≥ 6.30	CNc1ncc(-c2nc3ccc(N4CC(OC)C4)cc3o2)c2cc(NC(=O)C3CC3)ncc12 [Example 274, N-(5-(6-(3-methoxyazetidin-1-yl)benzo[d]oxazol-2-yl)-8-(methylamino)-2,7-naphthyridin-3-yl)cyclopropanecarboxamide]
≥ 7.00	≥ 6.30	CNc1ncc(-c2nc3ccc(N4CCO[C@@H](C)C4)cc3o2)c2cc(NC(=O)C3CC3)ncc12 [Example 275, (S)—N-(8-(methylamino)-5-(6-(2-methylmorpholino)benzo[d]oxazol-2-yl)-2,7-naphthyridin-3-yl)cyclopropanecarboxamide]
≥ 7.00	≥ 6.30	CNc1ncc(-c2nc3ccc(N4CCO[C@H](C)C4)cc3o2)c2cc(NC(=O)C3CC3)ncc12 [Example 276, (R)—N-(8-(methylamino)-5-(6-(2-methylmorpholino)benzo[d]oxazol-2-yl)-2,7-naphthyridin-3-yl)cyclopropanecarboxamide]
≥ 7.00	≥ 6.30	CNc1ncc(-c2nc3cc(N4CCC4)ccc3o2)c2cc(NC(=O)C3CC3)ncc12 [Example 277, N-(5-(5-(azetidin-1-yl)benzo[d]oxazol-2-yl)-8-(methylamino)-2,7-naphthyridin-3-yl)cyclopropanecarboxamide]
